Tested on: Plasmodium falciparum
Assay: GSK_TCMDC: Inhibition of Plasmodium falciparum 3D7 in whole erythrocytes, using parasite LDH activity as an index of growth.
Type: functional, organism-based
Conditions: Plasmodium falciparum, 3D7

Row | Compound | XC50 [nM]
1 | Fc1ccc(C(OCC2CCCN(Cc3cccc4cccnc34)C2)c2ccc(F)cc2)cc1 (stereo not given) | 703
2 | COc1cc2c(cc1OC)CC(NCCCCCCNCCc1ccc(Cl)cc1)CC2 (stereo not given) | 738
3 | COc1ccc2nccc([C@@H](O)CN3CCC(NCc4cc5c(Cl)cccc5[nH]4)CC3)c2c1 | 155
4 | Cc1cccc(Nc2nccc(Nc3cccc(C(=O)NCCN4CCOCC4)c3)n2)c1 | 1420
5 | NC1=NC2(CCCC2)C(c2ccc(Cl)c(Cl)c2)C(N)=N1 (stereo not given) | 987
6 | Cc1cc(NCCC(=O)Nc2ccccc2)nc(NCCc2ccccc2)n1 | 852
7 | COc1cccc(CC(=O)N2CCC(n3c(C)nc4ccc(C)cc43)CC2)c1 | 114
8 | O=C(Nc1ccc(N2CCN(Cc3cccc(F)c3)CC2)cc1)c1cccs1 | 682
9 | O=C(c1cnn(-c2ccccc2)c1C(F)(F)F)N1CCN(c2ccnc3cc(Cl)ccc23)CC1 | 532
10 | O=C(Nc1cccc(CCNCc2ccccc2)c1)Nc1cccc2ccccc12 | 729
11 | CN(C)CCNC(=O)c1ccc(-c2ccc3c(Nc4ccccc4)c(C(N)=O)cnc3c2)cc1 | 728
12 | CCC(COCc1ccc(Cl)cc1)N(C)CCN(C)C(CC)COCc1ccc(Cl)cc1 (stereo not given) | 1060
13 | CCOC(=O)c1cccc(NC(=O)Nc2cccc(-c3ncc(OCCCN)c4c3nc(-c3nonc3N)n4CC)c2)c1 | 894
14 | CCNc1cc(C(=O)N[C@@H](Cc2ccccc2)[C@H](O)CNC(C)C)cc(N2CC(c3ccccc3)CCS2(=O)=O)c1 (stereo not given in full) | 412
15 | CCCNCc1ccc(-c2ccc(CN(Cc3cnc(C)cn3)C(=O)c3nn(-c4ccccc4)nc3C)cc2)nc1 | 419
16 | Cc1ccccc1C1CCN(C2CCC(NC(=O)/C=C/c3cc(F)cc(F)c3)CC2)CC1 (stereo not given) | 833
17 | CCN(CC)/C(=N/C(=N)NCc1ccc(Cl)cc1)NCCCCCCN/C(=N\C(=N)NCc1ccc(Cl)cc1)N(CC)CC | 231
18 | Cc1ccc(O)c(-c2cc(C(=O)Nc3ccc(S(=O)(=O)N4CCCCCC4)cc3)[nH]n2)c1 | 711
19 | Fc1cccc(Nc2nc(NCCc3ccc(Cl)cc3)nc(Nc3cccc(F)c3)n2)c1 | 1070
20 | CC(CCc1ccccc1)NCC(O)c1ccc2c3c(cccc13)S(=O)(=O)N2C (stereo not given) | 627
21 | O=C(c1cccc(Cl)c1)N1CCN(c2ccc([N+](=O)[O-])c(NC3CC3)c2)CC1 | 867
22 | CCCC(N)C(=O)NC1CCN(c2c(F)c(N)c3c(=O)c(C(=O)O)cn4c3c2Oc2ccccc2-4)C1 (stereo not given) | 359
23 | Cc1ccc(-c2nnc(Nc3ccc(CC(N)=O)cc3)c3ccccc23)cc1S(=O)(=O)NCC1CCCO1 (stereo not given) | 791
24 | COc1cc2nccc(Nc3ccc(Oc4ccccc4)cc3)c2cc1OC | 684

Row | Compound | XC50 [nM]
25 | CC(Oc1ccc(C(=O)c2ccc(F)cc2)cc1)C(=O)N1CCc2ccccc21 (stereo not given) | 413
26 | Cc1ccccc1OCC(O)CNC1CCC(NCC(O)COc2ccccc2C)CC1 (stereo not given) | 1190
27 | COc1ccc(CNCc2ccc(-c3ccc(-c4nc5cc(F)ccc5[nH]4)cc3)cc2)cc1 | 249
28 | O=S(=O)(Nc1ccc(CCN2CCC(N3CCCCC3)CC2)cc1)c1ccc2ccccc2c1 | 1010
29 | COc1cccc2c(NN=Cc3ccc(Cl)cc3)ccnc12 | 814
30 | CC(C)N1CCC(NC(=O)N2CCCN(c3ncnc4cc(-c5ccccc5)sc34)CC2)CC1 | 861
31 | CC[C@H]1CN2CC[C@@H]1C[C@H]2[C@H](O)c1cc(N2CCC(O)(c3ccc(Cl)cc3)CC2)nc2ccc(OC)cc12 | 71
32 | CCCC(C)Nc1nc(C)cc(N[C@@H](Cc2ccccc2)C(=O)NCCOc2ccccc2)n1 (stereo not given in full) | 699
33 | CCCCCCc1cc2cc(-c3nc(-c4ccc(OC)cc4)cs3)c(=O)oc2cc1O | 816
34 | O=C(Nc1cccc(-c2ccc(-c3nc4cc(C(F)(F)F)ccc4[nH]3)s2)c1)c1cccnc1 | 363
35 | CCN(CC)Cc1cc(Nc2ccnc3cc(Cl)ccc23)ccc1O | 160
36 | NCC1(c2nc(-c3ccc(Cl)c(O)c3)c(-c3ccncc3)[nH]2)CCCCC1 | 744
37 | COc1ccc(Cl)cc1N1CCN(CCCNC(=O)c2ccc(-c3nc4cc(Cl)c(F)cc4[nH]3)s2)CC1 | 314
38 | CCn1cc(CN2CCCC(C(=O)Nc3ccc(-c4nc5ccccc5[nH]4)cc3)C2)c(C)n1 (stereo not given) | 802
39 | Nc1cccc(CNCc2ccc(-c3cccc(-c4nc5cc(C(F)(F)F)ccc5[nH]4)c3)cc2)c1 | 172
40 | O=C(Cn1c(CCc2cccc(F)c2F)cc(=O)c2ccccc21)N(Cc1ccc(-c2ccc(C(F)(F)F)cc2)cc1)C1CCN(CCN2CCOCC2)CC1 | 720
41 | CNS(=O)(=O)c1ccc(NC(=O)c2cc(-c3cccnc3)nc3ccc(Br)cc23)cc1 | 907
42 | CN1CCC(N2CCN(Cc3cccc(-c4ccc(-c5nc6cc(F)ccc6[nH]5)cc4)c3)CC2)CC1 | 107
43 | CCOC(=O)N1CCN(C(=O)Nc2ccc(Cl)cc2)CC1 | 1520
44 | N#Cc1cccc(Nc2nccc(NCC(O)c3ccccc3C(F)(F)F)n2)c1 (stereo not given) | 827
45 | CNC(=O)c1ccccc1Nc1nc(Nc2ccc(CCN3CCN(C)CC3)cc2)ncc1Cl | 651
46 | Fc1ccc2[nH]ccc(=NN=CC=Cc3ccccc3)c2c1 | 681
47 | CC(C)COc1ccc(Cl)cc1Cc1ccc(-c2nc3cc(CCN4CCCC4)ccc3[nH]2)o1 | 730
48 | O=C(NCC1CCC(CNCCCc2ccccc2)CC1)Nc1ccc(Cl)c(Cl)c1 (stereo not given) | 767

Row | Compound | XC50 [nM]
49 | Cc1[nH]c(C)c(-c2ccc(/C=C/c3ccccn3)cc2)c(=O)c1Cl | 516
50 | CC(=O)Nc1ccc(CN2CCC(N(C)c3ccc(NC(=O)c4cccc(C)c4)cc3)CC2)cc1 | 986
51 | CCCn1c(Sc2ccc(C#N)c([N+](=O)[O-])c2)nnc1-c1ccc(OC)cc1 | 865
52 | Cc1cc(C(=O)Nc2ccc3c(c2)CCN3C2CCN(Cc3cccc(F)c3F)C2)no1 (stereo not given) | 583
53 | COc1ccc(-c2cccc(NC(=O)c3ccc(Cl)cc3)c2)cc1CNC(C)C | 695
54 | COC(C(=O)OCCC1CCCN1C)(c1ccccc1)c1ccccc1 (stereo not given) | 970
55 | Cc1noc(C)c1-c1cccc(CNCc2cccc(-c3ccc(-c4nc5ccccc5[nH]4)s3)c2)c1 | 204
56 | CCN(CC)CCCC(C)N/C(=N\c1ccccc1Br)Nc1ccc(C#N)cc1O (stereo not given) | 1040
57 | C[C@@H](N/C(=N\c1ccc(-c2ccccc2)cc1)Nc1ccc(C#N)cc1O)c1ccc(Br)cc1 | 699
58 | COc1ccc(CN2CCCN(Cc3cccc(NC(=O)c4cc5ccccc5s4)c3)CC2)cc1 | 842
59 | CS(=O)(=O)c1ccc(-c2cnc(N)c(-c3cccc(CO)c3)c2)cc1 | 939
60 | COc1ccc2nccc([C@@H](O)CN3CCC(NCc4ccc5cccc(O)c5n4)CC3)c2c1 | 1130
61 | COc1ccc2c(=NN=Cc3ccccc3Cl)cc(C)[nH]c2c1 | 373
62 | COc1cc(CN2CCC(CO)(Cc3cccc(C(F)(F)F)c3)CC2)c(Cl)cc1O | 896
63 | COc1ccc(NC(=O)c2csc(-c3cc(NC(=O)c4ccnc(N5CCCC5)c4)ccc3C)c2)cc1N1CCN(C)CC1 | 660
64 | COc1ccc(NC(=O)[C@H](Cc2ccccc2)Nc2cc(C)nc(NCC3CCCCC3)n2)cc1 | 678
65 | CC(=NNC(S)=NC(c1ccccc1)c1ccccc1)c1ccccn1 | 896
66 | O=C(N[C@H]1CCN(Cc2ccc(OCCN3CCNCC3)c(Cl)c2)C1)c1ccc(Cl)c(Cl)c1 | 1060
67 | O=C(Nc1ccc(OC2CCN(Cc3ccc(F)cc3)C2)c(Cl)c1)c1ccco1 (stereo not given) | 195
68 | CC(C)CCN(Cc1cncn1Cc1ccccc1F)C(=O)c1cncc(-c2ccccc2)c1 | 791
69 | COc1ccc2nc(-c3ccccc3)cc(NCCN(C)C)c2c1 | 731
70 | Cc1ccc(F)c(OCC2CCN(c3ncc(C(=O)NC4CC4)cc3Cl)CC2)c1 | 902

From ChEMBL document CHEMBL1157539, “Thousands of chemical starting points for antimalarial lead identification” (Nature, 2010)
